Reference: US8293292B2, “Extract of Fraxinus excelsior seeds and therapeutic applications therefor” (Naturex, S.A., priority 2008, dated 2012)

How the values were obtained:
[1] = molecular target: T1, PPAR-alpha (Homo sapiens, UniProt Q07869); experiment: PPAR-alpha activation in reporter cell lines; type: cell-based; details: concentration of 10^−4 M
T1 sequence (Q07869 1-468): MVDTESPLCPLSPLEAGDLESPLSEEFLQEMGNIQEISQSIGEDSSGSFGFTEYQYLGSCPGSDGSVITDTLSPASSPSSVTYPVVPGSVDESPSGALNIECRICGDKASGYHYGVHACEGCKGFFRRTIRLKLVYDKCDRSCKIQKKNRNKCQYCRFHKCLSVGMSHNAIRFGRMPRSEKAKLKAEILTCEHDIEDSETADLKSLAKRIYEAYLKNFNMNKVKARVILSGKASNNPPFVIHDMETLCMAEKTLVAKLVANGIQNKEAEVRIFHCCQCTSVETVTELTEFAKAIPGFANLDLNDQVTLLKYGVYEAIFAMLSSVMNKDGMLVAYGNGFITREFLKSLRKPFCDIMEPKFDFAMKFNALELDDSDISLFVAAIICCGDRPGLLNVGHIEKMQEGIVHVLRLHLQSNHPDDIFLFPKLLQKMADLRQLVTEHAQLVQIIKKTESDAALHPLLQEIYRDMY
Excerpt: FIG. 6 illustrates relative PPARα activation potential (%) in reporter cell lines using concentrations ranging from 10^−5M-10^−9M for the selective synthetic PPARα activator WY14,643 as well as the isolated compounds at a concentration of 10^−4M and a 1:10 aqueous solution of FE seed extract, with compound label: FE19028 (Nuzhenide, 3), FE20015 (G13, 4), FE20031 (oleoside dimethyl ester, 6), FE21008 (excelside A, 1), and FE21023 (GI5, 5);
PPAR-alpha activity of excelside A (1), GI3 (4), and oleoside dimethyl ester (6). Five single compounds isolated from Fraxinus excelsior (FE) seed water extract were tested for PPAR-alpha activity. The synthetic and selective PPAR alpha activator WY14,643 served as positive control and DMSO which was used to dissolve these compounds as negative control in the assay.

[2] = system: 3T3-L1 cells; experiment: adipogenesis inhibition, glucose uptake of MDI-induced 3T3-L1 preadipocytes; type: cell-based; details: 0.004%, 0.02%, 0.05%, 0.1%; glucose uptake ten days after differentiation induction
Excerpt: Inhibitory effect of GI5 (5) and nuzhenide (3) on undifferentiated 3T3-L1 cells. The major component of weight gain is deposition of adipose tissue in body through the adipogenesis process. Adipogenesis is characterized by increase in the size and number of fat cells. The secoiridoids, GI5 and nuzhenide isolated from F. excelsior, have shown significant and mild adipogenesis inhibitory activity, respectively, by blocking the pathway from undifferentiated 3T3-L1 cell to differentiated adipocyte to achieve an effect on bodyweight control and body fat loss. 3T3-L1 preadipocytes were induced to differentiate with methylisobutylxanthine, dexamethasone, and insulin (MDI) hormonal cocktail in the presence or absence of compounds. Ten days after differentiation induction, the treated cells were assayed for their respective glucose uptake activity, which is an indirect measurement of differentiation (adipogenesis) because preadipocytes are incapable of insulin-induced, glucose transport-4 (GLUT4)-mediated glucose uptake while fully differentiate adipocytes are capable of this uptake. Compounds, GI5 and nuzhenide, were used at four different concentrations: 0.004%, 0.02%, 0.05%, and 0.1%. Untreated (undifferentiated) cells were used as a negative control while insulin was used as a positive control. Methanol (MeOH), the solvent of the compounds, was also used as a control.

Row | PPAR-alpha activity [1] | Compound | adipogenesis inhibitory activity [2]
1 | good activity | C/C=C1/[C@H](O[C@@H]2O[C@H](CO[C@@H]3O[C@H](CO)[C@@H](O)[C@H](O)[C@H]3O)[C@@H](O)[C@H](O)[C@H]2O)OC=C(C(=O)OC)[C@H]1CC(=O)OC [excelside A, (2S,3E,4S) 2H-Pyran-4-acetic acid-3-ethylidene-2-[(6-O-β-D-glucopyranosyl-β-D-glucopyranosyl)oxy]-3,4-dihydro-5-(methoxycarbonyl)methyl ester] | –
2 | good activity | C/C=C1\[C@H](O[C@@H]2O[C@H](CO)[C@@H](O)[C@H](O)[C@H]2O)OC=C(C(=O)OC)[C@H]1CC(=O)OC [oleoside dimethyl ester] | –
3 | – | C/C=C1\C(CC(=O)OC[C@H]2O[C@@H](OCCc3ccc(O)cc3)[C@H](O)[C@@H](O)[C@@H]2O)C(C(=O)OC)=CO[C@H]1O[C@@H]1O[C@H](CO)[C@@H](O)[C@H](O)[C@H]1O (stereo partly drawn) [nuzhenide] | mild
